Where two headings read alike, the source gives them in different places.
Key:
melanoma MES cells = assay: Bulk RNA sequencing after ARV-771 exposure; type: cell-based, human; conditions: 50 nM ARV-771; for antigen presentation program expression: melanoma MES cells
Method: Approximately 2*10^5 cells were plated in a 6-well plate. For knockdown experiments, these were transfected with the described siRNA pool 24 and 72 hours after plating and collected 24 hours after the second transfection. For inducible TCF4 experiments, cells were treated with 2 ng/ml doxycycline (Sigma-Aldrich, Cat #D9891) every 48 hours and collected 96 hours after plating. For ARV-771 experiments, cells were treated with 50 nM ARV-771 (Bioconnect, Cat #HY-100972) 24 hours after plating and collected 96 hours after plating. RNA was extracted using the RNA NucleoSpin extraction kit (Macherey&Nagel) according to the manufacturer's instructions.
The RNA integrity was monitored using Bioanalyzer analysis. 5 ng of RNA per sample was reverse-transcribed and amplified using a modified version of the SMARTseq2 protocol, previously described in Rambow et al. 2018 (Cell 174:843-855.e19). Prior to generating sequencing libraries using the NexteraXT kit (Illumina, Cat #FC-131-10), cDNA profiles were monitored using the Bioanalyzer. Sequencing was performed on a Illumina Nextseq500 platform. Differential gene expression analyses were executed using the DeSeq2 pipeline.

TCF4 [1] = conditions: B cell lymphoma and BPDCN; Jain et al. 2019, Ceribelli et al. 2016; cited from earlier work
TCF4 [2] = assay: RT-qPCR of TCF4 expression after ARV-771; type: cell-based, human; conditions: MM057 cells; collected 48 hours after plating
Method: MM057 cells were plated and treated with the specified dose of ARV-771, as described above 48 hours after plating, cells were collected, resuspended in RA1 lysis buffer using the RNA NucleoSpin extraction kit (Macherey&Nagel) and processed according to manufacturer's instructions. RNA was quantified using a ThermoScientific NanoDrop 1000 and 500 to 2000 ng was reverse transcribed with a High-Capacity cDNA Reverse Transcription Kit (Life Technologies). qPCRs were run using the SensiFAST probe No-ROX kit (Bioline, Cat #BIO-86005) on a Roche Life Science LightCycler 384. Data processing with Biogazelle Qbase+3.1 software relied on normalization with a minimum of two reference genes.

TCF4 locus = assay: OmniATAC-seq chromatin accessibility; type: cell-based, human; conditions: MM057 cells; ARV-771 100 nM
Method: Approximately […] MM057 cells were plated in a 6-well plate and treated with ARV-771 100 nM after 24 hours. Forty eight hours after plating, cells were collected. Nuclei of 50,000 cells were isolated and an Omni-assay for transposase-accessible chromatin using sequencing (OmniATAC-seq) was performed as described previously (Corces et al. 2017, Nat Methods 14:959-962). After final amplification, samples were cleaned up with MinElute (QIAGEN) and libraries were prepared using the KAPA Library Quantification Kit (supplier). Samples were sequenced on an IlluminaNextSeq 500 High Output chip. Briefly, reads were mapped to human genome (GRCh37) using STAR (2.7.1a-foss-2018a). Resulting BAMfiles were cleaned for duplicates using Picard (2.21.8-Java-1.8.0) and indexed. Mitochondrial reads were removed using SAMtools (1.9-20190828-foss-2018a) and BigWig files were created (deepTools/3.3.1-foss-2018a-Python-3.7.4). ATAC-seq peaks were identified and visualized using MACS2 peak calling (2.1.2.1-foss-2018a-Python-2.7.16) with […] BAMPE parameters. Finally, BED files were created from broadPeak files using BEDTools (2.28.0-foss-2018a).

MM029 cells = assay: Proliferation assay (IncuCyte cell confluency); type: cell-based, human; conditions: ARV-771 300 nM with dabrafenib 50 nM, trametinib 10 nM, FIG. 9
Method: Roughly 400 MM029 cells per well were plated in a 96-well plate and treated with ARV-771 300 nM and/or Dabrafenib 50 nM+Trametinib 10 nM after 24 hours. Cells were imaged using the IncuCyte ZOOM System (Essen Bioscience) and automated cell confluency measurements were made using images taken at 2 hour intervals, for the duration of the experiments. Five technical replicates were averaged and statistical significance was assessed (paired, two-tailed Student's t-test).

Cc1ncsc1-c1ccc([C@H](C)NC(=O)[C@@H]2C[C@@H](O)CN2C(=O)[C@@H](NC(=O)COCCCOCCNC(=O)C[C@@H]2N=C(c3ccc(Cl)cc3)c3c(sc(C)c3C)-n3c(C)nnc32)C(C)(C)C)cc1 [ARV-771]
expression of genes from the MES signature (melanoma MES cells): strongly downregulated
expression of genes from the MITF-dependent MEL signature (melanoma MES cells): upregulated
transcriptional changes compared with TCF4 silencing (melanoma MES cells): recapitulated most of the transcriptional changes observed upon TCF4 silencing
antigen presentation program expression (melanoma MES cells): upregulated
antigen presentation program expression (melanoma MES cells; listed as ARV-711): unleashes the expression of antigen presentation machinery and HLA-genes
overall transcriptional reprogramming effect upon BET-inhibition (melanoma MES cells; mesenchymal-like vs melanocytic cell lines): far more drastic in mesenchymal-like than in melanocytic cell lines
TCF4 expression (TCF4 [1]): decrease its expression
TCF4 expression (TCF4 [2]): dose-dependent decrease in TCF4 expression
chromatin accessibility upstream of the TCF4 locus (TCF4 locus): decreased chromatin accessibility upstream of the TCF4 locus
sensitivity to BRAF- and MEK-inhibition (cell growth) (MM029 cells): increased sensitivity to BRAF- and MEK-inhibition

From US20260048075A1, “Inhibition of TCF4/ITF2 in the Treatment of Cancer” (VIB VZW, priority 2022, published 2026)
